# Reference: PubChem BioAssay (NCI)
#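 Dose response: 5 concentrations. Exposure: 48 h. Format: 96-well plates. Endpoint: linear interpolation; highest concentration if not reached. GI50 marks 50% less growth. At the TGI there is no net growth.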
# Tested on: P388 leukemia
# Experiment: NCI tumour cell line growth inhibition, 48 h
compound,measurement,value
CCc1ccc([O-])c(C=NCCCN(C)CCCN=Cc2cc(C)ccc2[O-])c1.[Co+3].[N-]=[N+]=[N-],GI50,145 µg/mL
same,TGI,> 150 µg/mL
